# In patent publication US20260309717A1, “PROXIMITY INDUCING SYSTEM AND USES THEREOF” (SORBONNE UNIVERSITE, priority 2022, published 2026):
# How the values were obtained:
# Type in all cases: cell-based
# [1] = test system: mCherry-FKBP-^FIREtag / TOM20-^FIREmate / FRB-ECFP-Giantin; assay: Orthogonality with FRB-FKBP-rapamycin CIP system, confocal microscopy, HeLa cells; conditions: simultaneous addition of 10 μM HBR-2,5DM and 500 nM rapamycin
# Description: FIG. 12A is a representation of the experimental design wherein HeLa cells co-expressing mCherry-FKBP-^FIREtag, TOM20-^FIREmate and FRB-ECFP-Giantin were treated with 10 μM of match (i.e., HBR-2,5DM) and 500 nM rapamycin, and imaged by time-lapse confocal microscopy. FIG. 12B is a set of representative confocal micrographs of cells before and after addition of HBR-2,5DM (match1) and rapamycin (rap) (mCherry: ex/em 561/606-675 nm; FIRE: ex/em 488/508-570 nm; ECFP: ex/em 445/455-499 nm). Scale bars are 20 μm.
# The confocal micrographs were acquired on a Zeiss LSM 980 Laser Scanning Microscope equipped with a plan apochromat 63x/1.4 NA oil immersion objective. ZEN software was used to collect the data. The images were analyzed using Icy (2.4.0.0) and Fiji (Image J). In short, to track fluorescence signal in a specific organelle, a ROI (region of interest) was determined by masking the signal in the ECFP (Enhanced Cyan Fluorescent Protein) channel with the plug-in HK-means with the following parameters: intensity class equals 100, minimum object size (pixels or px) equals 500, maximum object size (px) equals 1500-3000. The signal intensity of the ROI was tracked over time for each channel by using plug-in Active Contours. The background signal was subtracted. Data were processed using GraphPad Prism v9.3.0. […]
# [2] = molecular target: T1, mCherry-^FIREtag / ^FIREmate-ECFP-Giantin (Halorhodospira halophila, UniProt P16113, A30V/C69G/D97P/F96I, form not given/G21E/G25R/K17N/M100R/M109L/Q41L/Q99S/S72T/T101G/V83A/Y94W/Y98T); assay: Induction of proximity with a non-fluorogenic chromophore, HeLa cells; conditions: 10 μM
# T1 construct: FIREmate-ECFP-Giantin(3131-3259) and mCherry-FIREtag in HeLa cells
# T1 sequence (P16113 1-114 A30V/C69G/D97P/F96I/G21E/G25R/K17N/M100R/M109L/Q41L/Q99S/S72T/T101G/V83A/Y94W/Y98T): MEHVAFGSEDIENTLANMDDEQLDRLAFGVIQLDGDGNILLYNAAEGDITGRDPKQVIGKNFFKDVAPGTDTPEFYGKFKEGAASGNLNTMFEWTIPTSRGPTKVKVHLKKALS
# Description: HeLa cells co-expressing mCherry-^FIREtag and ^FIREmate-ECFP-Giantin were treated with 10 μM HBR-2,5DM (match1), washed with HBR-2,5DM-free medium and then treated with 10 μM HBIR-3M. Cells were imaged by time-lapse spinning-disk confocal microscopy. FIGS. 9A-D are sets of representative confocal micrographs of untreated cells (9A), cells after addition of HBR-2,5DM (match1) (9B), cells after washout of HBR-2,5DM (match1) (9C), and cells after addition of HBIR-3M (9D). (mCherry: ex/em 561/606-675 nm; FIRE: ex/em 488/508-570 nm). Scale bars are 10 μm.
# Next, experiments were carried out to investigate whether other chromophores could act as molecular inducer of proximity and provide new properties. In particular, non-fluorogenic chromophores, such as HBIR-3M, were investigated. […] The fusion proteins mCherry-^FIREtag (red fluorescence) and ^FIREmate-ECFP-Giantin (blue fluorescence) were co-expressed in HeLa cells as described above.
# [3] = molecular target: T2, mCherry-^FIREtag / Lyn11-ECFP-^FIREmate (Halorhodospira halophila, UniProt P16113, A30V/C69G/D97P/F96I, form not given/G21E/G25R/K17N/M100R/M109L/Q41L/Q99S/S72T/T101G/V83A/Y94W/Y98T); assay: Recruitment of cytoplasmic protein to the plasma membrane, HEK293 cells; conditions: 10 μM
# T2 construct: Lyn11-ECFP-FIREmate and mCherry-FIREtag in HEK293 cells
# T2 sequence (P16113 1-114 A30V/C69G/D97P/F96I/G21E/G25R/K17N/M100R/M109L/Q41L/Q99S/S72T/T101G/V83A/Y94W/Y98T): T1 sequence (P16113 1-114 A30V/C69G/D97P/F96I/G21E/G25R/K17N/M100R/M109L/Q41L/Q99S/S72T/T101G/V83A/Y94W/Y98T)
# Description: FIGS. 8A-E illustrate the recruitment of cytoplasmic proteins to the plasma membrane with the proximity inducing system described herein. FIG. 8A is a representation of the experimental design wherein HEK293 cells co-expressing mCherry-^FIREtag and Lyn11-ECFP-^FIREmate were treated with 10 μM of match (either HBR-2,5DM or HMBR), and imaged by time-lapse confocal microscopy. FIGS. 8B-C are graphs showing the temporal evolution of the FIRE signal detected upon addition at 0 min of HBR-2,5DM (match1-8B) or HMBR (match2-8C). Data represents the mean values±SD of 22 cells from n=3 independent experiments (8B, D), or of 30 cells from n=3 independent experiments (8C, E). FIGS. 8D-E are sets of representative confocal micrographs of cells before (0 min) and after (5 min) addition of HBR-2,5DM (match1-8D) or HMBR (match2-8E) (mCherry: ex/em 561/606-675 nm; FIRE: ex/em 488/508-570 nm; ECFP: ex/em 445/455-499 nm). […] Scale bars are 20 μm.
# (§1) The confocal micrographs were acquired on a Zeiss LSM 980 Laser Scanning Microscope equipped with a plan apochromat 63x/1.4 NA oil immersion objective. ZEN software was used to collect the data. The images were analyzed using Icy (2.4.0.0) and Fiji (Image J). In short, to track fluorescence signal in a specific organelle, a ROI (region of interest) was determined by masking the signal in the ECFP (Enhanced Cyan Fluorescent Protein) channel with the plug-in HK-means with the following parameters: intensity class equals 100, minimum object size (pixels or px) equals 500, maximum object size (px) equals 1500-3000. The signal intensity of the ROI was tracked over time for each channel by using plug-in Active Contours. The background signal was subtracted. Data were processed using GraphPad Prism v9.3.0.
# (§2) To further evaluate the scope of the proximity inducing system described herein and show its versatility, ^FIREmate was anchored at the membrane of various organelles or cellular structures so that ^FIREmate faced the cytosol. ^FIREmate was thus fused: • to the N-terminus of the transmembrane domain (amino acid residues at positions 3131-3259) of Giantin for location at the cis-medial rims of the Golgi apparatus (FIG. 6A), • to the N-terminus of the transmembrane domain (amino acid residues at positions 100-134) of the cytochrome b5 (Cb5) for location at the endoplasmic reticulum membrane (FIG. 7A), and • to the C-terminus of the Lyn11 inner membrane targeting sequence for location at the plasma membrane (FIG. 8A).
# (§3) For each construct, an ECFP was inserted between ^FIREmate and the other protein domain/sequence to monitor the localization of the resulting fusion protein (blue fluorescence). Each fusion protein was co-expressed in mammalian cells (HeLa cells or HEK293 cells as indicated) together with mCherry-^FIREtag (red fluorescence). […]
# [4] = molecular target: T1, mCherry-^FIREtag / ^FIREmate-ECFP-Giantin; assay: Recruitment of cytoplasmic protein to the Golgi apparatus, HeLa cells; conditions: 10 μM
# Description: FIGS. 6A-E illustrate the recruitment of cytoplasmic proteins to the Golgi apparatus with the proximity inducing system described herein. FIG. 6A is a representation of the experimental design wherein HeLa cells co-expressing mCherry-^FIREtag and ^FIREmate-ECFP-Giantin were treated with 10 µM of match (either HBR-2,5DM or HMBR), and imaged by time-lapse confocal microscopy. FIGS. 6B-C are graphs showing the temporal evolution of the FIRE signal detected upon addition at 0 min of HBR-2,5DM (match1-6B) or HMBR (match2-6C). Data represents the mean values±SD of 10 cells from n=3 independent experiments (6B, D), or of 12 cells from n=3 independent experiments (6C, E). FIGS. 6D-E are sets of representative confocal micrographs of cells before (0 min) and after (5 min) addition of HBR-2,5DM (match1-6D) or HMBR (match2-6E) (mCherry: ex/em 561/606-675 nm; FIRE: ex/em 488/508-570 nm; ECFP: ex/em 445/455-499 nm). […] Scale bars are 20 μm.
# as §1, §2, §3
# [5] = molecular target: T3, ^FIREmate and ^FIREtag (fused to FRB and FKBP) (Halorhodospira halophila, UniProt P16113, A30V/C69G/D97P/F96I, form not given/G21E/G25R/K17N/M100R/M109L/Q41L/Q99S/S72T/T101G/V83A/Y94W/Y98T); assay: Flow cytometry of fluorescent ternary assembly formation in HEK293T cells co-expressing FKBP-^FIREtag and FRB-^FIREmate
# T3 sequence (P16113 1-114 A30V/C69G/D97P/F96I/G21E/G25R/K17N/M100R/M109L/Q41L/Q99S/S72T/T101G/V83A/Y94W/Y98T): T1 sequence (P16113 1-114 A30V/C69G/D97P/F96I/G21E/G25R/K17N/M100R/M109L/Q41L/Q99S/S72T/T101G/V83A/Y94W/Y98T)
# Description: FIGS. 2A and 2B are graphs illustrating the fluorogen-dependent interaction between the two polypeptides ^FIREmate and ^FIREtag. The graphs show the normalized average fluorescence detected from about 50,000 HEK293T cells co-expressing the FK506-binding protein (FKBP) fused to ^FIREtag and the FKBP-rapamycin-binding domain of mammalian target of rapamycin (FRB) fused to ^FIREmate treated without (triangles) or with (squares) 500 nM of rapamycin, and with 1, 5, 10, 25 or 50 μM of HBR-2,5DM (2A) or HMBR (2B). Data represent the mean values±SD of three independent experiments.
# The formation of a fluorescent ternary assembly was assessed by flow cytometry in HEK293 cells expressing ^FIREmate and ^FIREtag fused to the C-termini of FKBP (FK506-binding protein) and FRB (FKBP-rapamycin-binding domain of mammalian target of rapamycin), […]. FKBP and FRB are able to dimerize upon addition of rapamycin. Treatment of the HEK293 cells with rapamycin is thus expected to induce the dimerization of FKBP and FRB, and subsequently to induce proximity between ^FIREtag and ^FIREmate.
# [6] = molecular target: T4, mCherry-^FIREtag / ^FIREmate-ECFP-Cb5 (Halorhodospira halophila, UniProt P16113, A30V/C69G/D97P/F96I, form not given/G21E/G25R/K17N/M100R/M109L/Q41L/Q99S/S72T/T101G/V83A/Y94W/Y98T); assay: Recruitment of cytoplasmic protein to the endoplasmic reticulum, HeLa cells; conditions: 10 μM
# T4 construct: FIREmate-ECFP-Cb5(100-134) and mCherry-FIREtag in HeLa cells
# T4 sequence (P16113 1-114 A30V/C69G/D97P/F96I/G21E/G25R/K17N/M100R/M109L/Q41L/Q99S/S72T/T101G/V83A/Y94W/Y98T): T1 sequence (P16113 1-114 A30V/C69G/D97P/F96I/G21E/G25R/K17N/M100R/M109L/Q41L/Q99S/S72T/T101G/V83A/Y94W/Y98T)
# Description: FIGS. 7A-E illustrate the recruitment of cytoplasmic proteins to the endoplasmic reticulum with the proximity inducing system described herein. FIG. 7A is a representation of the experimental design wherein HeLa cells co-expressing mCherry-^FIREtag and ^FIREmate-ECFP-Cb5 were treated with 10 μM of match (either HBR-2,5DM or HMBR), and imaged by time-lapse confocal microscopy. FIGS. 7B-C are graphs showing the temporal evolution of the FIRE signal detected upon addition at 0 min of HBR-2,5DM (match1-7C) or HMBR (match2-7D). Data represents the mean values±SD of 17 cells from n=3 independent experiments (7B, D), or of 18 cells from n=3 independent experiments (7C, E). FIGS. 7D-E are sets of representative confocal micrographs of cells before (0 min) and after (5 min) addition of HBR-2,5DM (match1-7D) or HMBR (match2-7E) (mCherry: ex/em 561/606-675 nm; FIRE: ex/em 488/508-570 nm; ECFP: ex/em 445/455-499 nm). […] Scale bars are 20 μm.
# as §1, §2, §3
smiles,measurement,setting,value
"CO[C@H]1C[C@@H]2CC[C@@H](C)[C@@](O)(O2)C(=O)C(=O)N2CCCC[C@H]2C(=O)O[C@H]([C@H](C)C[C@@H]2CC[C@@H](O)[C@H](OC)C2)CC(=O)[C@H](C)/C=C(\C)[C@@H](O)[C@@H](OC)C(=O)[C@H](C)C[C@H](C)/C=C/C=C/C=C/1C [rapamycin, reference compound]",translocation of mCherry-FKBP-^FIREtag,[1],triggered the translocation of mCherry-FKBP-^FIREtag to the Golgi apparatus and to the mitochondria
"Cc1cc(/C=C2\SC(=O)NC2=S)ccc1O [HBIR-3M, (Z)-5-(4-hydroxy-3-methylbenzylidene)-4-thioxo-1,3-thiazolidin-2-one]","assembly with ^FIREtag and ^FIREmate (tightness, fluorescence)",[2],very tight non-fluorescent ‘invisible’ assembly
same,"induction of proximity relative to HBR-2,5DM",[2]; cycles of sequential addition and removal,"as efficiently as HBR-2,5DM"
"Cc1cc(/C=C2\SC(=S)NC2=O)ccc1O [HMBR, (Z)-5-(4-hydroxy-3-methylbenzylidene)-2-thioxo-1,3-thiazolidin-4-one]",FIRE signal at the plasma membrane,[3],simultaneous appearance of green fluorescence
same,translocation of mCherry-^FIREtag to the plasma membrane,[3],rapid translocation of mCherry-^FIREtag to the organelle
same,FIRE signal at the Golgi apparatus,[4],simultaneous appearance of green fluorescence
same,translocation of mCherry-^FIREtag to the Golgi apparatus,[4],rapid translocation of mCherry-^FIREtag to the organelle
same,dimerization of FKBP and FRB (induced proximity),[5]; absence of rapamycin,able to induce the dimerization of FKBP and FRB
same,formation of a ternary fluorescent assembly,"[5]; fluorogen 1, 5, 10, 25 or 50 μM, HEK293 cells",induced the formation of a ternary fluorescent assembly at all tested fluorogen concentrations
same,dependence of ternary fluorescent assembly formation on rapamycin (initial proximity),"[5]; with or without 500 nM rapamycin, fluorogen 1-50 μM",regardless of the presence or absence of rapamycin
same,FIRE signal at the endoplasmic reticulum,[6],simultaneous appearance of green fluorescence
same,translocation of mCherry-^FIREtag to the endoplasmic reticulum,[6],rapid translocation of mCherry-^FIREtag to the organelle
